Data published in ChEMBL document CHEMBL1144790, “Prodrugs of phosphates and phosphonates” (J Med Chem, 2008).
One block for each compound: values may come before it.

Tests used:
[1] = Stability in human gastric juice assessed as half life of hydrolysis; assay type: ADME, tissue-based
[2] = Stability in human serum assessed as half life of hydrolysis; assay type: ADME, cell-free
[3] = Chemical stability assessed as half life of hydrolysis in phosphate buffer at pH 8.5; assay type: physicochemical
[4] = Chemical stability assessed as half life of hydrolysis in carbonate buffer at pH 8.5; assay type: physicochemical
[5] = Aqueous stability assessed as time to reach 90% of starting dose at pH 3.0 to 7.4; assay type: physicochemical; conditions: buffer
Liver = test: Metabolic stability in rat liver S9 fraction assessed as esterase conversion rate; assay type: ADME, subcellular
[6] = Oral bioavailability in rat; assay type: ADME, organism-based; conditions: in vivo
[7] = Aqueous stability assessed as time to reach 90% of starting dose at pH 7; assay type: physicochemical; conditions: buffer
[8] = Aqueous stability assessed as time to reach 90% of starting dose at pH 7; conditions: buffer
Trypanosoma brucei = test: Antiparasitic activity against Trypanosoma brucei; assay type: functional, organism-based
[9] = Chemical stability assessed as half life of hydrolysis at acidic pH; assay type: physicochemical
[10] = Chemical stability assessed as half life of hydrolysis at neutral pH; assay type: physicochemical

Structure (SMILES): CC(C)(C)C(=O)SCCOP(=O)(COCCn1cnc2c(N)ncnc21)OCCSC(=O)C(C)(C)C
- half-life [1]: < 5 min
- half-life [2]: 4 h

Structure (SMILES): O=C(O)CCNC(=O)[C@H](Cc1ccc(-c2ccccc2)cc1)NCP(=O)(Oc1ccccc1)Oc1ccccc1
- half-life [3]: > 96 h
- half-life [4]: 0.5 h

Structure (SMILES): CC(=O)Oc1ccc(COP(=O)(OCc2ccc(OC(C)=O)cc2)c2ccc(-c3nc(N)sc3CC(C)C)o2)cc1
- Stability [5]: < 4 h
- Stability (Liver): > 300 nmol/min/mg

Structure (SMILES): CCOC(=O)[C@H](C)NP(=O)(Oc1ccccc1)c1ccc(-c2nc(N)sc2CC(C)C)o1 (stereo partly specified)
- Stability (Liver): 55 nmol/min/mg
- Stability [8]: 14 h

Structure (SMILES): CC(=O)SCCOP(=O)(OCCSC(C)=O)c1ccc(-c2nc(N)sc2CC(C)C)o1
- Stability (Liver): > 300 nmol/min/mg
- Stability [8]: 8 h

Structure (SMILES): CC(C)(C)C(=O)SCCOP(=O)(OCCSC(=O)C(C)(C)C)Oc1ccc(O)c(C(=O)O)c1
- IC50 (Trypanosoma brucei): 20 µM

Structure (SMILES): CC(C)(C)C(=O)OCOP(=O)(OCOC(=O)C(C)(C)C)OC[C@H]1O[C@@H](n2cc(F)c(=O)[nH]c2=O)C[C@@H]1O
- half-life [9]: > 40 h
- half-life [10]: > 40 h

Results, then the compound that gave them:

- bioavailability [6]: 22%
- Stability [7]: > 7 days
- Stability [5]: > 48 h
- Stability (Liver): 11 nmol/min/mg
Structure (SMILES): CCOC(=O)[C@H](C)NP(=O)(N[C@@H](C)C(=O)OCC)c1ccc(-c2nc(N)sc2CC(C)C)o1

- Stability (Liver): 43 nmol/min/mg
- Stability [8]: 36 h
Structure (SMILES): CCOC(=O)CNP(=O)(NCC(=O)OCC)c1ccc(-c2nc(N)sc2CC(C)C)o1

- Stability (Liver): > 300 nmol/min/mg
- Stability [8]: < 4 h
Structure (SMILES): CC(C)Cc1sc(N)nc1-c1ccc(P(=O)(OCOC(=O)C(C)(C)C)OCOC(=O)C(C)(C)C)o1
